For this test, the target named is T1, human P2X7 receptor (Homo sapiens, UniProt Q99572).
T1 construct: expressed in transfected cells
T1 sequence (Q99572 1-595): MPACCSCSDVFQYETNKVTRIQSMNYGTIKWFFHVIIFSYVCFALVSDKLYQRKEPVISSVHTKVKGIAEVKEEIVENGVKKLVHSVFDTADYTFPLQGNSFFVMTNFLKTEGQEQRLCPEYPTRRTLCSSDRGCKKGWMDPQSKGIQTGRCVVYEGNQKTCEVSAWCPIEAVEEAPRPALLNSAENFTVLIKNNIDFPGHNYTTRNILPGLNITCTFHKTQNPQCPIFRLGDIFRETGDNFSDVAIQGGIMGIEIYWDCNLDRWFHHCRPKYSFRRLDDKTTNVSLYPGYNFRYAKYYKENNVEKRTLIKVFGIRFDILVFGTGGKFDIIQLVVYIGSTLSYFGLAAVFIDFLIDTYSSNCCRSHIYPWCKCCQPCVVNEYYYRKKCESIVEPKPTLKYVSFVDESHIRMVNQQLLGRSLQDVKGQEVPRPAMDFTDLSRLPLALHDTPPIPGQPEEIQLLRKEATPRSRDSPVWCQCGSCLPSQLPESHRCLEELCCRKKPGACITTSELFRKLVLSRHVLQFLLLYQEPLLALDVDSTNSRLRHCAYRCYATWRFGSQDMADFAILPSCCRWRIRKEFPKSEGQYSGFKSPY
The experiment in a line: Ethidium Accumulation Assay. Format: cell-based. The conditions noted are these: HEK293 cells stably expressing human recombinant P2X7 receptors; 1 mM ATP; values given as 'about'; read-out: pIC50 for human P2X7 receptor antagonist activity (blocking ATP responses) in the Ethidium Accumulation Assay (converted). The method, then:
Studies were performed using NaCl assay buffer of the following composition: 140 mM NaCl, 10 mM HEPES [4-(2-hydroxyethyl)-1-piperazine-1-ethanesulfonic acid], 5 mM N-methyl-D-glucamine, 5.6 mM KCl, 10 mM D-glucose, 0.5 mM CaCl2 (pH 7.4).
Human Embryonic Kidney (HEK) 293 cells, stably expressing human recombinant P2X7 receptors, were grown in poly-D-lysine pre-treated 96 well plates for 18-24 hours. […] The cells were washed twice with 350 μl of the assay buffer, before addition of 50 μl of the assay buffer containing the putative P2X7 receptor antagonist compound. (A small amount of dimethyl sulfoxide, for initially dissolving the compound, is optionally used and present in this 50 μl test compound sample.) The cells were then incubated at room temperature (19-21° C.) for 30 min before addition of ATP and ethidium (100 μM final assay concentration). The ATP concentration was chosen to be close to the EC80 for the receptor type and was 1 mM for studies on the human P2X7 receptor. Incubations were continued for 8 or 16 min and were terminated by addition of 25 μl of 1.3M sucrose containing 4 mM of the P2X7 receptor antagonist Reactive Black 5 (Aldrich). […] Antagonist pIC50 values for blocking ATP responses were determined using iterative curve fitting techniques.
In the case of `CN1CCN(C(=O)c2cccc(C(F)(F)F)c2Cl)CC1=O` [Example 35, 4-{[2-chloro-3-(trifluoromethyl)phenyl]carbonyl}-1-methyl-2-piperazinon], the IC50 is 2.51 to 100 nM. As for `Cc1c(N2CCCC2)cccc1N1CCN(C(=O)c2cccc(C(F)(F)F)c2Cl)CC1=O` [Example 75, 4-{[2-chloro-3-(trifluoromethyl)phenyl]carbonyl}-1-[2-methyl-3-(1-pyrrolidinyl)phenyl]-2-piperazinone], the figure is 2.51 to 100 nM; as for `Cc1ccccc1N1CCN(C(=O)c2ccc(Cl)cc2Cl)CC1=O` [Example 2, 4-[(2,4-Dichlorophenyl)carbonyl]-1-(2-methylphenyl)-2-piperazinone], 5.01 to 200 nM.

Consider `Cc1c(Br)cccc1N1CCN(C(=O)c2cccc(C(F)(F)F)c2Cl)CC1=O` [Example 46, 1-(3-bromo-2-methylphenyl)-4-{[2-chloro-3-(trifluoromethyl)phenyl]carbonyl}-2-piperazinone], for which the IC50 is 2.51 to 100 nM.

`O=C(c1cccc(C(F)(F)F)c1Cl)N1CCN(c2ccc(F)cc2)C(=O)C1` [Example 12, 4-{[2-Chloro-3-(trifluoromethyl)phenyl]carbonyl}-1-(4-fluorophenyl)-2-piperazinone]: the IC50 was 5.01 to 200 nM.

With `O=C(c1cccc(Cl)c1Cl)N1CCN(c2ccc(F)cc2)C(=O)C1` [Example 13, 4-[(2,3-Dichlorophenyl)carbonyl]-1-(4-fluorophenyl)-2-piperazinone], the IC50 is 5.01 to 200 nM. As for `CC(C)c1ccccc1N1CCN(C(=O)c2cccc(Cl)c2Cl)CC1=O` [Example 27, 4-[(2,3-dichlorophenyl)carbonyl]-1-[2-(1-methylethyl)phenyl]-2-piperazinone], the figure is 2.51 to 100 nM; as for `Cc1c(N2CCOCC2)cccc1N1CCN(C(=O)c2cccc(Cl)c2Cl)CC1=O` [Example 80, 4-[(2,3-dichlorophenyl)carbonyl]-1-[2-methyl-3-(4-morpholinyl)phenyl]-2-piperazinone], 2.51 to 100 nM. Under `Cc1c(N2CCOCC2)cccc1N1CCN(C(=O)c2c(Cl)cc(Cl)cc2Cl)CC1=O` [Example 82, 1-[2-methyl-3-(4-morpholinyl)phenyl]-4-[(2,4,6-trichlorophenyl)carbonyl]-2-piperazinone] stands 2.51 to 100 nM; under `Cc1ccccc1N1CCN(C(=O)c2cccc(C(F)(F)F)c2Cl)CC1=O` [Example 1, 4-{[2-Chloro-3-(trifluoromethyl)phenyl]carbonyl}-1-(2-methylphenyl)-2-piperazinone], 5.01 to 200 nM. As for `CC(C)N1CCN(C(=O)c2cccc(Cl)c2Cl)CC1=O` [Example 18, 4-[(2,3-Dichlorophenyl)carbonyl]-1-(1-methylethyl)-2-piperazinone], the figure is 5.01 to 200 nM; as for `N#Cc1cc(F)ccc1N1CCN(C(=O)c2cccc(C(F)(F)F)c2Cl)CC1=O` [Example 50, 2-(4-{[2-chloro-3-(trifluoromethyl)phenyl]carbonyl}-2-oxo-1-piperazinyl)-5-fluorobenzonitrile], 2.51 to 100 nM; as for `O=C(c1cccc(C(F)(F)F)c1Cl)N1CCN(c2cccc3ccccc23)C(=O)C1` [Example 24, 4-{[2-chloro-3-(trifluoromethyl)phenyl]carbonyl}-1-(1-naphthalenyl)-2-piperazinone], 2.51 to 100 nM. Turning to `COc1ccc(I)cc1N1CCN(C(=O)c2cccc(C(F)(F)F)c2Cl)CC1=O` [Example 64, 4-{[2-chloro-3-(trifluoromethyl)phenyl]carbonyl}-1-[5-iodo-2-(methyloxy)phenyl]-2-piperazinone], the IC50 is 2.51 to 100 nM. As to `O=C(c1cccc(C(F)(F)F)c1F)N1CCN(c2ccc(F)cc2Cl)C(=O)C1` [Example 56, 1-(2-chloro-4-fluorophenyl)-4-{[2-fluoro-3-(trifluoromethyl)phenyl]carbonyl}-2-piperazinone], the IC50 is 2.51 to 100 nM.

As to `O=C1CN(C(=O)c2cccc(C(F)(F)F)c2Cl)CCN1CC1CCCCC1` [Example 66, 4-{[2-chloro-3-(trifluoromethyl)phenyl]carbonyl}-1-(cyclohexylmethyl)-2-piperazinone], the IC50 is 2.51 to 100 nM.

Source of the values: patent publication US20100311749A1, “4-BENZOYL-1-SUBSTITUTED-PIPERAZIN-2-ONE DERIVATIVES AS P2X7 MODULATORS” (priority 2007, published 2010).
